Source: patent US20140155415A1, “BENZ[…] BENZODIOXINE COMPOUNDS THAT INTERACT WITH G[…] FOR THE TREATMENT OF DIABETES” (priority 2011, published 2014)

Legend:
[1] = biological target: T1, GK-GKRP (glucokinase / glucokinase regulatory protein) (Homo sapiens, UniProt Q14397); experiment: GKRP LC MS/MS Biochemical Assay (LCMS/MS); details: formation of 13C-glucose-6-phosphate from 13C-glucose by LC MS/MS, human His-hepatic GK, fructose-6-phosphate
T1 sequence (Q14397 1-625): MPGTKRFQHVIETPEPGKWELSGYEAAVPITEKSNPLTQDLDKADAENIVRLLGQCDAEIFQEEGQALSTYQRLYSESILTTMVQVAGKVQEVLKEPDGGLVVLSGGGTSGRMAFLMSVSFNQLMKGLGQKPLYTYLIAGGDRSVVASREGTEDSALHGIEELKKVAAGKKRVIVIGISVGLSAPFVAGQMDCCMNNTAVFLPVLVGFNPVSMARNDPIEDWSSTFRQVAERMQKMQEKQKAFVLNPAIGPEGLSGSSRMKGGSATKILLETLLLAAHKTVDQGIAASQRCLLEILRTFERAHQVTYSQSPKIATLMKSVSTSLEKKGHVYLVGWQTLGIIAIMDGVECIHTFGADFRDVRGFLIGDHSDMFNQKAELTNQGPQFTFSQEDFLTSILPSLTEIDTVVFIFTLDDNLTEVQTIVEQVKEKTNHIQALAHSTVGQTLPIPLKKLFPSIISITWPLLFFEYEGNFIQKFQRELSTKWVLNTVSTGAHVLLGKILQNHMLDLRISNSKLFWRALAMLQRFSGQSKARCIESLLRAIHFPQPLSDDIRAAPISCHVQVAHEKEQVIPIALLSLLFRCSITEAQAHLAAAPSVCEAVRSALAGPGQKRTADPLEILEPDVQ
Protocol: GKRP LC MS/MS Biochemical Assay (LCMS/MS)
This assay is used to directly measure the formation of ^13C-glucose-6-phosphate from ^13C-glucose by LC MS/MS. Begin by preparing the following solutions: Compound Buffer (CB): 50 mM Tris, pH 7.5/4 mM MgCl2/6% DMSO/fresh 10 mM DTT from 1M frozen stock. Enzyme Buffer (EB): 50 mM Tris, pH 7.5/4 mM MgCl2/6% DMSO/fresh 0.1% BSA/fresh 0.01% Brij-35 (10% BSA and 1% Brij-35 stock). GK (Glucokinase) Working Stock (5×): Dilute human His-hepatic GK to 30 nM in EB buffer. […] Seal the plate and incubate for 30 minutes at room temperature while mixing. After 30 minutes add 10 μl of GK Working Stock (5×). Re-seal the plate and incubate for another 30 minutes at room temperature while mixing. After the second 30 minutes, stop the reaction by the addition of 50 μl of 100% acetonitrile, seal, and mix for 5-10 minutes. Run 10 μl of this sample through the LC MS/MS (API 3200, Applied Biosystems, Carlsbad, Calif.). […]
(§1) In the Examples, the assays are referred to as “LCMS/MS” or “Binding.”

[2] = biological target: T2, GK-GKRP (interaction between glucokinase and glucokinase regulatory protein) (Homo sapiens, UniProt Q14397); experiment: GK-GKRP Binding Assay (Binding), AlphaScreen; details: avi-tagged GKRP, GK-fluorescein, AlphaScreen beads, 1 μM sorbitol-6-phosphate; read-out: GK-GKRP IC50 (Binding)
T2 construct: made in house; host or cells: GKRP: baculovirus system
T2 sequence (Q14397 1-625): T1 sequence (Q14397 1-625)
Protocol: GK-GKRP Binding Assay Protocol (Binding)
This assay is used to directly measure the interaction between glucokinase (GK) and glucokinase regulatory protein (GKRP). Begin by preparing the following solutions. Assay Buffer: 20 mM Tris, pH 7.5/0.05% BSA/1 mM DTT/1 μM sorbitol-6-phosphate. […] Combine the following reagents in a white 96-well half area plate. Pipette 14 μl of the diluted avi-tagged GKRP into each well. Add 1 μl of compound to be tested and incubate at room temperature for 20 minutes. After 20 minutes, add 5 μl of assay buffer containing 6 nM GK-fluorescein. […] Incubate in a dark room for 2 hours at room temperature. After 2 hours read the plate using an Envision plate reader (Perkin Elmer, Waltham Mass.).
Recombinant human glucokinase (hepatic) was purified and formulated in 50 mM Tris (pH 7.5), 150 mM NaCl and 20 mM glucose previous to labeling with fluorescein. […] Unreacted dye was removed by extensive dialysis into the final formulation buffer: 25 mM Tris (pH 7.2), 150 mM NaCl, 10% glycerol and 2 mM DTT. The human glucokinase regulatory protein construct was designed with a C-terminal avitag and was expressed in a baculovirus system. Purified GKRP was incubated overnight with recombinant biotin ligase in the presence of D-biotin, ATP and MgCl2. GKRP was isolated from reaction components by chromatography on a Superdex 200 size exclusion column into: 50 mM HEPES, 150 mM NaCl and 5 mM DTT. […] Proteins were quantitated according to their calculated molar extinction coefficients at A280 and were stored at −80° C.
as §1

| Structure (SMILES) | EC50 [1] [nM] | IC50 [2] [nM] |
| --- | --- | --- |
| CC(C)c1ccccc1C(NS(=O)(=O)c1ccc2c(c1)OCCCO2)c1cc2ccccc2o1 (racemic) [Example 9, N-(1-benzofuran-2-yl(2-(1-methylethyl)phenyl)methyl)-3,4-dihydro-2H-1,5-benzodioxepine-7-sulfonamide] | 280 | 1100 |
| O=S(=O)(NC(c1ccccc1)c1cc2ccccc2o1)c1ccc2c(c1)OCC(F)CO2 (racemic) [Example 35, N-(1-benzofuran-2-yl(phenyl)methyl)-3-fluoro-3,4-dihydro-2H-1,5-benzodioxepine-7-sulfonamide] | 3100 | 2300 |
| Cc1cc(F)ccc1C(NS(=O)(=O)c1ccc2c(c1)OCCCO2)c1cc2ccccc2o1 (racemic) [Example 3, N-(1-benzofuran-2-yl(4-fluoro-2-methylphenyl)methyl)-3,4-dihydro-2H-1,5-benzodioxepine-7-sulfonamide] | 440 | 1800 |
| CSc1ccccc1C(NS(=O)(=O)c1ccc2c(c1)OCCCO2)c1cc2ccccc2o1 (racemic) [Example 19, N-(1-benzofuran-2-yl(2-(methylsulfanyl)phenyl)methyl)-3,4-dihydro-2H-1,5-benzodioxepine-7-sulfonamide] | 38 | 160 |
| CSc1ccccc1[C@H](NS(=O)(=O)c1ccc2c(c1)OCCCO2)c1cc2ccccc2s1 (single isomer, unassigned) [Example 41 Peak #1] | 40 | 140 |
| O=S(=O)(N[C@@H](c1cc2ccccc2o1)c1ccccc1Br)c1ccc2c(c1)OCCCO2 (single isomer, unassigned) [Example 22 Peak #2] | 26 | 83 |
| O=S(=O)(NC(c1cc2ccccc2o1)c1ccccc1CO)c1ccc2c(c1)OCCCO2 (racemic) [Example 15, N-(1-benzofuran-2-yl(2-(hydroxymethyl)phenyl)methyl)-3,4-dihydro-2H-1,5-benzodioxepine-7-sulfonamide] | 1600 | 4600 |
| O=S(=O)(NC(c1cccc(O)c1)c1cc2ccccc2o1)c1ccc2c(c1)OCCCO2 (racemic) [Example 13, N-(1-benzofuran-2-yl(3-hydroxyphenyl)methyl)-3,4-dihydro-2H-1,5-benzodioxepine-7-sulfonamide] | 1800 | 2500 |
| CCc1ccccc1[C@H](NS(=O)(=O)c1ccc2c(c1)OCCCO2)c1cc2ccccc2s1 (single isomer, unassigned) [Example 37 Peak #1] | > 20000 | 1300 |
| CSc1ccccc1[C@@H](NS(=O)(=O)c1ccc2c(c1)OCCCO2)c1cc2ccccc2s1 (single isomer, unassigned) [Example 41 Peak #2] | 13 | 8 |
| O=S(=O)(NC(c1ccccc1)c1ccc2ccccc2n1)c1ccc2c(c1)OCCCO2 (racemic) [Example 56, N-(phenyl(2-quinolinyl)methyl)-3,4-dihydro-2H-1,5-benzodioxepine-7-sulfonamide] | 720 | 1400 |
| O=S(=O)(NC(c1ccsc1)c1cc2ccccc2o1)c1ccc2c(c1)OCCCO2 (racemic) [Example 32, N-(1-benzofuran-2-yl(3-thiophenyl)methyl)-3,4-dihydro-2H-1,5-benzodioxepine-7-sulfonamide] | 1400 | – |
| O=S(=O)(NC(c1cccc(F)c1)c1cc2ccccc2o1)c1ccc2c(c1)OCCCO2 (racemic) [Example 24, N-(1-benzofuran-2-yl(3-fluorophenyl)methyl)-3,4-dihydro-2H-1,5-benzodioxepine-7-sulfonamide] | 1800 | – |
| O=S(=O)(NC(c1cc2ccccc2o1)c1ccccc1CCO)c1ccc2c(c1)OCCCO2 (racemic) [Example 16, N-(1-benzofuran-2-yl(2-(2-hydroxyethyl)phenyl)methyl)-3,4-dihydro-2H-1,5-benzodioxepine-7-sulfonamide] | 3200 | – |

Further lines, results first:

| EC50 [1] [nM] | IC50 [2] [nM] | Structure (SMILES) |
| --- | --- | --- |
| 29 | 6 | CSc1ccccc1C(NS(=O)(=O)c1ccc2c(c1)OCCCO2)c1nc2ccccc2s1 (racemic) [Example 52, N-(1,3-benzothiazol-2-yl(2-(methylsulfanyl)phenyl)methyl)-3,4-dihydro-2H-1,5-benzodioxepine-7-sulfonamide] |
| 200 | 790 | COc1ccc2sc(C(NS(=O)(=O)c3ccc4c(c3)OCCCO4)c3ccccc3)cc2c1 (racemic) [Example 58, N-((5-methoxy-1-benzothiophen-2-yl)(phenyl)methyl)-3,4-dihydro-2H-1,5-benzodioxepine-7-sulfonamide] |
| 290 | 210 | O=S(=O)(N[C@H](c1ccccn1)c1cc2ccccc2o1)c1ccc2c(c1)OCCCO2 (single isomer, unassigned) [Example 25 Peak #2] |
| 95 | 58 | COc1ccccc1C(NS(=O)(=O)c1ccc2c(c1)OCCCO2)c1nc2cccnc2s1 (racemic) [Example 67, N-((2-methoxyphenyl)([1,3]thiazolo[5,4-b]pyridin-2-yl)methyl)-3,4-dihydro-2H-1,5-benzodioxepine-7-sulfonamide] |
| 360 | 270 | COc1cccnc1C(NS(=O)(=O)c1ccc2c(c1)OCCCO2)c1nc2ccccc2s1 (racemic) [Example 53, N-(1,3-benzothiazol-2-yl(3-methoxy-2-pyridinyl)methyl)-3,4-dihydro-2H-1,5-benzodioxepine-7-sulfonamide] |
| 68 | 42 | COc1ccccc1C(NS(=O)(=O)c1ccc2c(c1)OCCCO2)c1nc2ccccc2s1 (racemic) [Example 51, N-(1,3-benzothiazol-2-yl(2-methoxyphenyl)methyl)-3,4-dihydro-2H-1,5-benzodioxepine-7-sulfonamide] |
| 990 | 1800 | O=S(=O)(NC(c1ncccn1)c1cc2ccccc2o1)c1ccc2c(c1)OCCCO2 (racemic) [Example 29, N-(1-benzofuran-2-yl(2-pyrimidinyl)methyl)-3,4-dihydro-2H-1,5-benzodioxepine-7-sulfonamide] |
| 22 | 10 | CSc1ccccc1C(NS(=O)(=O)c1ccc2c(c1)OCCCO2)c1cc2cccnc2s1 (racemic) [Example 48, N-((2-(methylsulfanyl)phenyl)(thieno[2,3-b]pyridin-2-yl)methyl)-3,4-dihydro-2H-1,5-benzodioxepine-7-sulfonamide] |
| 6000 | 3800 | O=S(=O)(N[C@@H](c1ccccn1)c1cc2ccccc2o1)c1ccc2c(c1)OCCCO2 (single isomer, unassigned) [Example 25 Peak #1] |
| 6100 | 1200 | COc1ccccc1[C@H](NS(=O)(=O)c1ccc2c(c1)OCCCO2)c1cc2ccccc2o1 (single isomer, unassigned) [Example 17 Peak #1] |
| 24 | 48 | COc1ccccc1[C@@H](NS(=O)(=O)c1ccc2c(c1)OCCCO2)c1nc2cccnc2s1 (single isomer, unassigned) [Example 67 Peak #2] |
